Laboratory results from PubChem BioAssay (NCI).
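A five-concentration, 48-hour dose response in 96-well plates underlies each endpoint, interpolated linearly between surrounding concentrations. TGI: total growth inhibition.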

How the values were obtained:
Assay in all cases: DTP human tumour cell line panel, 48 h
CCRF-CEM leukemia = system: CCRF-CEM leukemia
NCI-H522 lung = system: NCI-H522 lung
MDA-MB-231 breast = system: MDA-MB-231 breast
EKVX NSCLC = system: EKVX NSCLC
HCT-116 colon = system: HCT-116 colon
NCI-H226 lung = system: NCI-H226 lung
HOP-92 NSCLC = system: HOP-92 NSCLC
HT29 colon = system: HT29 colon
OVCAR-3 ovarian = system: OVCAR-3 ovarian
MCF7 breast = system: MCF7 breast
UACC-62 melanoma = system: UACC-62 melanoma
786-0 renal = system: 786-0 renal
CAKI-1 renal = system: CAKI-1 renal
SNB-19 CNS = system: SNB-19 CNS
UO-31 renal = system: UO-31 renal
MDA-N = system: MDA-N
SK-MEL-28 melanoma = system: SK-MEL-28 melanoma
BT-549 breast = system: BT-549 breast
SR leukemia = system: SR leukemia
NCI-H460 lung = system: NCI-H460 lung
OVCAR-8 ovarian = system: OVCAR-8 ovarian
SF-295 CNS = system: SF-295 CNS
TK-10 renal = system: TK-10 renal
RXF 393 renal = system: RXF 393 renal
MDA-MB-435 = system: MDA-MB-435
UACC-257 melanoma = system: UACC-257 melanoma
SK-OV-3 ovarian = system: SK-OV-3 ovarian
K-562 leukemia = system: K-562 leukemia
SN12C renal = system: SN12C renal
ACHN renal = system: ACHN renal
SF-539 CNS = system: SF-539 CNS
HS 578T breast = system: HS 578T breast
PC-3 prostate = system: PC-3 prostate
A498 renal = system: A498 renal
IGROV1 ovarian = system: IGROV1 ovarian
NCI-H23 lung = system: NCI-H23 lung
DU-145 prostate = system: DU-145 prostate
COLO 205 colon = system: COLO 205 colon
SK-MEL-2 melanoma = system: SK-MEL-2 melanoma
LOX IMVI melanoma = system: LOX IMVI melanoma
HCC-2998 colon = system: HCC-2998 colon
SF-268 CNS = system: SF-268 CNS
U251 CNS = system: U251 CNS
A549 NSCLC = system: A549 NSCLC
RPMI-8226 leukemia = system: RPMI-8226 leukemia
M14 melanoma = system: M14 melanoma
HL-60(TB) leukemia = system: HL-60(TB) leukemia
SNB-75 CNS = system: SNB-75 CNS
KM12 colon = system: KM12 colon
OVCAR-5 ovarian = system: OVCAR-5 ovarian
SW-620 colon = system: SW-620 colon
MOLT-4 leukemia = system: MOLT-4 leukemia
MALME-3M melanoma = system: MALME-3M melanoma
HOP-62 NSCLC = system: HOP-62 NSCLC
HCT-15 colon = system: HCT-15 colon
SK-MEL-5 melanoma = system: SK-MEL-5 melanoma
T-47D breast = system: T-47D breast
OVCAR-4 ovarian = system: OVCAR-4 ovarian
NCI/ADR-RES ovarian = system: NCI/ADR-RES ovarian

With `COc1cccc(C2c3cc4c(cc3OC(NNc3ccccc3)C2C)OCO4)c1O` (stereo unspecified) the TGI (CCRF-CEM leukemia) was 21.7 µM, the TGI (NCI-H522 lung) was 14.4 µM and the TGI (MDA-MB-231 breast) was 27.9 µM. The TGI (EKVX NSCLC) was 22.1 µM, the TGI (HCT-116 colon) was 18 µM and the TGI (NCI-H226 lung) was 29.6 µM. The TGI (HOP-92 NSCLC) was 28.5 µM, the TGI (HT29 colon) was 23.3 µM and the TGI (OVCAR-3 ovarian) was 8.36 µM. The TGI (MCF7 breast) was 19.6 µM, the TGI (UACC-62 melanoma) was 17.9 µM and the TGI (786-0 renal) was 23.2 µM. For the same compound, the TGI (CAKI-1 renal) was 23.3 µM, the TGI (SNB-19 CNS) was 32.4 µM and the TGI (UO-31 renal) was 16.6 µM. It also gave a TGI (MDA-N) of 8.59 µM, a TGI (SK-MEL-28 melanoma) of 24.7 µM and a TGI (BT-549 breast) of 20.4 µM. For the same compound, the TGI (SR leukemia) was 6.28 µM, the TGI (NCI-H460 lung) was 15.5 µM and the TGI (OVCAR-8 ovarian) was 21.1 µM. The TGI (SF-295 CNS) was 10.5 µM, the TGI (TK-10 renal) was 17.3 µM and the TGI (RXF 393 renal) was 29.6 µM. The TGI (MDA-MB-435) was 12.5 µM, the TGI (UACC-257 melanoma) was 17.7 µM and the TGI (SK-OV-3 ovarian) was 58.4 µM. For the same compound, the TGI (K-562 leukemia) was 11.9 µM, the TGI (SN12C renal) was 23.5 µM and the TGI (ACHN renal) was 15.5 µM. It also gave a TGI (SF-539 CNS) of 9.87 µM, a TGI (HS 578T breast) of 34.5 µM and a TGI (PC-3 prostate) of 19.1 µM. It also gave a TGI (A498 renal) of 28.2 µM, a TGI (IGROV1 ovarian) of 25.5 µM and a TGI (NCI-H23 lung) of 28 µM. It also gave a TGI (DU-145 prostate) of 18.9 µM, a TGI (COLO 205 colon) of 23.8 µM and a TGI (SK-MEL-2 melanoma) of 25.7 µM. It also gave a TGI (LOX IMVI melanoma) of 27.5 µM, a TGI (HCC-2998 colon) of 6.47 µM and a TGI (SF-268 CNS) of 42.4 µM. The TGI (U251 CNS) was 18.7 µM, the TGI (A549 NSCLC) was 19.2 µM and the TGI (RPMI-8226 leukemia) was 22.6 µM. For the same compound, the TGI (M14 melanoma) was 19.3 µM, the TGI (HL-60(TB) leukemia) was 12.9 µM and the TGI (SNB-75 CNS) was 47.4 µM. For the same compound, the TGI (KM12 colon) was 18.3 µM, the TGI (OVCAR-5 ovarian) was 27.1 µM and the TGI (SW-620 colon) was 25.5 µM. The TGI (MOLT-4 leukemia) was 23.5 µM, the TGI (MALME-3M melanoma) was 19.1 µM and the TGI (HOP-62 NSCLC) was 8.14 µM. It also gave a TGI (HCT-15 colon) of 12 µM, a TGI (SK-MEL-5 melanoma) of 20 µM and a TGI (T-47D breast) of 31.1 µM.

`O=C1c2ccccc2-c2c1c(-c1ccc(O)cc1O)nc1ccc3ccccc3c21` showed a TGI (CCRF-CEM leukemia) greater than 100 µM, a TGI (MDA-MB-231 breast) greater than 100 µM and a TGI (EKVX NSCLC) greater than 100 µM. The TGI (HCT-116 colon) was greater than 100 µM, the TGI (NCI-H226 lung) was greater than 100 µM and the TGI (HT29 colon) was greater than 100 µM. It also gave a TGI (MCF7 breast) greater than 100 µM, a TGI (UACC-62 melanoma) greater than 100 µM and a TGI (786-0 renal) greater than 100 µM. It also gave a TGI (CAKI-1 renal) greater than 100 µM, a TGI (SNB-19 CNS) greater than 100 µM and a TGI (UO-31 renal) greater than 100 µM. It also gave a TGI (MDA-N) greater than 100 µM, a TGI (SK-MEL-28 melanoma) greater than 100 µM and a TGI (BT-549 breast) greater than 100 µM. For the same compound, the TGI (NCI-H460 lung) was greater than 100 µM, the TGI (OVCAR-8 ovarian) was greater than 100 µM and the TGI (SF-295 CNS) was greater than 100 µM. The TGI (OVCAR-4 ovarian) was greater than 100 µM, the TGI (MDA-MB-435) was greater than 100 µM and the TGI (UACC-257 melanoma) was greater than 100 µM. For the same compound, the TGI (SK-OV-3 ovarian) was greater than 100 µM, the TGI (K-562 leukemia) was greater than 100 µM and the TGI (SN12C renal) was greater than 100 µM. It also gave a TGI (ACHN renal) greater than 100 µM, a TGI (NCI/ADR-RES ovarian) greater than 100 µM and a TGI (SF-539 CNS) greater than 100 µM. For the same compound, the TGI (HS 578T breast) was 75.2 µM, the TGI (PC-3 prostate) was greater than 100 µM and the TGI (A498 renal) was greater than 100 µM. For the same compound, the TGI (NCI-H23 lung) was greater than 100 µM, the TGI (DU-145 prostate) was greater than 100 µM and the TGI (COLO 205 colon) was greater than 100 µM. It also gave a TGI (SK-MEL-2 melanoma) greater than 100 µM, a TGI (HCC-2998 colon) greater than 100 µM and a TGI (SF-268 CNS) greater than 100 µM. The TGI (U251 CNS) was greater than 100 µM, the TGI (A549 NSCLC) was greater than 100 µM and the TGI (RPMI-8226 leukemia) was greater than 100 µM. For the same compound, the TGI (M14 melanoma) was greater than 100 µM, the TGI (SNB-75 CNS) was greater than 100 µM and the TGI (KM12 colon) was greater than 100 µM. The TGI (OVCAR-5 ovarian) was greater than 100 µM, the TGI (SW-620 colon) was greater than 100 µM and the TGI (MOLT-4 leukemia) was greater than 100 µM. The TGI (MALME-3M melanoma) was greater than 100 µM, the TGI (HOP-62 NSCLC) was greater than 100 µM and the TGI (HCT-15 colon) was greater than 100 µM. It also gave a TGI (T-47D breast) greater than 100 µM.

`CCC12CCCN3CCc4c(n(c5ccccc45)C(O)(C(=O)OC)C1)C32` (stereo unspecified) showed a TGI (CCRF-CEM leukemia) greater than 100 µM, a TGI (NCI-H522 lung) greater than 100 µM and a TGI (MDA-MB-231 breast) greater than 100 µM. For the same compound, the TGI (EKVX NSCLC) was greater than 100 µM, the TGI (HCT-116 colon) was greater than 100 µM and the TGI (NCI-H226 lung) was greater than 100 µM. It also gave a TGI (HOP-92 NSCLC) greater than 100 µM, a TGI (HT29 colon) greater than 100 µM and a TGI (OVCAR-3 ovarian) greater than 100 µM. For the same compound, the TGI (MCF7 breast) was greater than 100 µM, the TGI (UACC-62 melanoma) was greater than 100 µM and the TGI (786-0 renal) was greater than 100 µM. The TGI (CAKI-1 renal) was greater than 100 µM, the TGI (SNB-19 CNS) was greater than 100 µM and the TGI (UO-31 renal) was greater than 100 µM. For the same compound, the TGI (MDA-N) was greater than 100 µM, the TGI (SK-MEL-28 melanoma) was greater than 100 µM and the TGI (BT-549 breast) was greater than 100 µM. The TGI (NCI-H460 lung) was greater than 100 µM, the TGI (OVCAR-8 ovarian) was greater than 100 µM and the TGI (SF-295 CNS) was greater than 100 µM. It also gave a TGI (TK-10 renal) greater than 100 µM, a TGI (OVCAR-4 ovarian) greater than 100 µM and a TGI (MDA-MB-435) greater than 100 µM. It also gave a TGI (UACC-257 melanoma) greater than 100 µM, a TGI (SK-OV-3 ovarian) greater than 100 µM and a TGI (SN12C renal) greater than 100 µM. It also gave a TGI (ACHN renal) greater than 100 µM, a TGI (NCI/ADR-RES ovarian) greater than 100 µM and a TGI (SF-539 CNS) greater than 100 µM. It also gave a TGI (HS 578T breast) greater than 100 µM, a TGI (PC-3 prostate) greater than 100 µM and a TGI (A498 renal) greater than 100 µM. The TGI (IGROV1 ovarian) was greater than 100 µM, the TGI (NCI-H23 lung) was greater than 100 µM and the TGI (DU-145 prostate) was greater than 100 µM. For the same compound, the TGI (COLO 205 colon) was greater than 100 µM, the TGI (SK-MEL-2 melanoma) was greater than 100 µM and the TGI (LOX IMVI melanoma) was greater than 100 µM. For the same compound, the TGI (HCC-2998 colon) was greater than 100 µM, the TGI (SF-268 CNS) was greater than 100 µM and the TGI (U251 CNS) was greater than 100 µM. The TGI (A549 NSCLC) was greater than 100 µM, the TGI (RPMI-8226 leukemia) was greater than 100 µM and the TGI (M14 melanoma) was greater than 100 µM. For the same compound, the TGI (HL-60(TB) leukemia) was greater than 100 µM, the TGI (SNB-75 CNS) was greater than 100 µM and the TGI (KM12 colon) was greater than 100 µM. It also gave a TGI (OVCAR-5 ovarian) greater than 100 µM, a TGI (SW-620 colon) greater than 100 µM and a TGI (MOLT-4 leukemia) greater than 100 µM. For the same compound, the TGI (MALME-3M melanoma) was greater than 100 µM, the TGI (HCT-15 colon) was greater than 100 µM and the TGI (SK-MEL-5 melanoma) was greater than 100 µM. The TGI (T-47D breast) was greater than 100 µM.
